Laboratory results taken from the supplement of paper PMC10307832.

Experiments:
Assay in all cases: relative viability (nuclei count vs DMSO), 5 days (fraction); higher = more cells survive
LCLC-103H = system: LCLC-103H
Summary of the method: (§1)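 Each reported value is a median over duplicate plates. It expresses relative viability: treated-well nuclei count divided by vehicle-well nuclei count. Lung cancer cell lines in 1536-well plates were dosed by pin tool a day after seeding, alone with one drug or with a fixed anchor-drug dose plus five library-drug doses (not always all listed) in √10 steps, and nuclei were counted after 5 days.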

LXF-289 = system: LXF-289
Summary of the method: as §1

NCI-H1355 = system: NCI-H1355
Summary of the method: as §1

NCI-H1651 = system: NCI-H1651
Summary of the method: as §1

NCI-H1755 = system: NCI-H1755
Summary of the method: as §1

NCI-H1792 = system: NCI-H1792
Summary of the method: as §1

NCI-H1915 = system: NCI-H1915
Summary of the method: as §1

NCI-H2347 = system: NCI-H2347
Summary of the method: as §1

NCI-H3122 = system: NCI-H3122
Summary of the method: as §1

NCI-H322M = system: NCI-H322M
Summary of the method: as §1

NCI-H441 = system: NCI-H441
Summary of the method: as §1

NCI-H460 = system: NCI-H460
Summary of the method: as §1

NCI-H522 = system: NCI-H522
Summary of the method: as §1

NCI-H596 = system: NCI-H596
Summary of the method: as §1

NCI-H727 = system: NCI-H727
Summary of the method: as §1

PC-14 = system: PC-14
Summary of the method: as §1

RERF-LC-KJ = system: RERF-LC-KJ
Summary of the method: as §1

SW 900 = system: SW 900
Summary of the method: as §1

**Q.** How did the relative viability (LCLC-103H; first compound 0.0002 µM) turn out when `CC(=O)O[C@@]12CO[C@@H]1C[C@H](O)[C@@]1(C)C(=O)[C@H](O)C3=C(C)[C@@H](OC(=O)[C@H](O)[C@@H](NC(=O)OC(C)(C)C)c4ccccc4)C[C@@](O)([C@@H](OC(=O)c4ccccc4)[C@H]21)C3(C)C` [Docetaxel] + NC(=O)Nc1cc(-c2cccc(F)c2)sc1C(=O)N[C@H]1CCCNC1 [AZD7762] (partner 0.2 µM) was run?
**A.** 0.771

**Q.** What about the relative viability (LCLC-103H; first compound 0.000632 µM) of the same compound?
**A.** 0.826

**Q.** And the relative viability (LCLC-103H; first compound 0.002 µM)?
**A.** 0.654

**Q.** What about the relative viability (LCLC-103H; first compound 0.006325 µM) of the same compound?
**A.** 0.508

**Q.** What about the relative viability (LCLC-103H; first compound 0.02 µM) of the same compound?
**A.** 0.372

**Q.** What about the relative viability (LXF-289; first compound 0.0002 µM) of the same compound?
**A.** 1.1

**Q.** And the relative viability (LXF-289; first compound 0.000632 µM)?
**A.** 0.664

**Q.** And the relative viability (LXF-289; first compound 0.002 µM)?
**A.** 0.346

**Q.** What about the relative viability (LXF-289; first compound 0.006325 µM) of the same compound?
**A.** 0.129

**Q.** What about the relative viability (LXF-289; first compound 0.02 µM) of the same compound?
**A.** 0.0873

**Q.** What about the relative viability (NCI-H1355; first compound 0.0002 µM) of the same compound?
**A.** 0.698

**Q.** What about the relative viability (NCI-H1355; first compound 0.000632 µM) of the same compound?
**A.** 0.758

**Q.** And the relative viability (NCI-H1355; first compound 0.002 µM)?
**A.** 0.411

**Q.** What about the relative viability (NCI-H1355; first compound 0.02 µM) of the same compound?
**A.** 0.191

**Q.** What about the relative viability (NCI-H1651; first compound 0.0002 µM) of the same compound?
**A.** 0.345

**Q.** What about the relative viability (NCI-H1651; first compound 0.000632 µM) of the same compound?
**A.** 0.507

**Q.** What about the relative viability (NCI-H1651; first compound 0.002 µM) of the same compound?
**A.** 0.394

**Q.** And the relative viability (NCI-H1651; first compound 0.006325 µM)?
**A.** 0.13

**Q.** What about the relative viability (NCI-H1755; first compound 0.0002 µM) of the same compound?
**A.** 0.488

**Q.** And the relative viability (NCI-H1755; first compound 0.000632 µM)?
**A.** 0.396

**Q.** And the relative viability (NCI-H1755; first compound 0.002 µM)?
**A.** 0.324

**Q.** And the relative viability (NCI-H1755; first compound 0.006325 µM)?
**A.** 0.401

**Q.** And the relative viability (NCI-H1755; first compound 0.02 µM)?
**A.** 0.352

**Q.** And the relative viability (NCI-H1792; first compound 0.0002 µM)?
**A.** 0.666

**Q.** And the relative viability (NCI-H1792; first compound 0.000632 µM)?
**A.** 0.465

**Q.** What about the relative viability (NCI-H1792; first compound 0.002 µM) of the same compound?
**A.** 0.24

**Q.** What about the relative viability (NCI-H1792; first compound 0.006325 µM) of the same compound?
**A.** 0.0705

**Q.** And the relative viability (NCI-H1792; first compound 0.02 µM)?
**A.** 0.0512

**Q.** And the relative viability (NCI-H1915; first compound 0.0002 µM)?
**A.** 0.638

**Q.** What about the relative viability (NCI-H1915; first compound 0.000632 µM) of the same compound?
**A.** 0.703

**Q.** And the relative viability (NCI-H1915; first compound 0.002 µM)?
**A.** 0.527

**Q.** And the relative viability (NCI-H1915; first compound 0.006325 µM)?
**A.** 0.182

**Q.** What about the relative viability (NCI-H1915; first compound 0.02 µM) of the same compound?
**A.** 0.107

**Q.** What about the relative viability (NCI-H2347; first compound 0.0002 µM) of the same compound?
**A.** 0.697

**Q.** And the relative viability (NCI-H2347; first compound 0.000632 µM)?
**A.** 0.583

**Q.** What about the relative viability (NCI-H2347; first compound 0.002 µM) of the same compound?
**A.** 0.434

**Q.** What about the relative viability (NCI-H2347; first compound 0.006325 µM) of the same compound?
**A.** 0.395

**Q.** And the relative viability (NCI-H2347; first compound 0.02 µM)?
**A.** 0.268

**Q.** What about the relative viability (NCI-H3122; first compound 0.0002 µM) of the same compound?
**A.** 0.939

**Q.** And the relative viability (NCI-H3122; first compound 0.000632 µM)?
**A.** 0.818

**Q.** And the relative viability (NCI-H3122; first compound 0.002 µM)?
**A.** 0.843

**Q.** And the relative viability (NCI-H3122; first compound 0.006325 µM)?
**A.** 0.171

**Q.** What about the relative viability (NCI-H3122; first compound 0.02 µM) of the same compound?
**A.** 0.121

**Q.** What about the relative viability (NCI-H322M; first compound 0.0002 µM) of the same compound?
**A.** 0.611

**Q.** And the relative viability (NCI-H322M; first compound 0.000632 µM)?
**A.** 0.459

**Q.** What about the relative viability (NCI-H322M; first compound 0.002 µM) of the same compound?
**A.** 0.451

**Q.** And the relative viability (NCI-H322M; first compound 0.006325 µM)?
**A.** 0.509

**Q.** And the relative viability (NCI-H322M; first compound 0.02 µM)?
**A.** 0.39

**Q.** What about the relative viability (NCI-H441; first compound 0.0002 µM) of the same compound?
**A.** 1.06

**Q.** What about the relative viability (NCI-H441; first compound 0.000632 µM) of the same compound?
**A.** 1.15

**Q.** And the relative viability (NCI-H441; first compound 0.002 µM)?
**A.** 0.263

**Q.** And the relative viability (NCI-H441; first compound 0.006325 µM)?
**A.** 0.221

**Q.** What about the relative viability (NCI-H441; first compound 0.02 µM) of the same compound?
**A.** 0.167

**Q.** And the relative viability (NCI-H460; first compound 0.0002 µM)?
**A.** 0.565

**Q.** And the relative viability (NCI-H460; first compound 0.000632 µM)?
**A.** 0.575

**Q.** What about the relative viability (NCI-H460; first compound 0.002 µM) of the same compound?
**A.** 0.167

**Q.** What about the relative viability (NCI-H460; first compound 0.006325 µM) of the same compound?
**A.** 0.0571

**Q.** And the relative viability (NCI-H460; first compound 0.02 µM)?
**A.** 0.0404

**Q.** And the relative viability (NCI-H522; first compound 0.0002 µM)?
**A.** 0.927

**Q.** What about the relative viability (NCI-H522; first compound 0.000632 µM) of the same compound?
**A.** 1.08

**Q.** What about the relative viability (NCI-H522; first compound 0.002 µM) of the same compound?
**A.** 0.622

**Q.** What about the relative viability (NCI-H522; first compound 0.006325 µM) of the same compound?
**A.** 0.484

**Q.** And the relative viability (NCI-H522; first compound 0.02 µM)?
**A.** 0.373

**Q.** And the relative viability (NCI-H596; first compound 0.0002 µM)?
**A.** 1.07

**Q.** What about the relative viability (NCI-H596; first compound 0.000632 µM) of the same compound?
**A.** 0.934

**Q.** And the relative viability (NCI-H596; first compound 0.002 µM)?
**A.** 1

**Q.** And the relative viability (NCI-H596; first compound 0.006325 µM)?
**A.** 0.581

**Q.** And the relative viability (NCI-H596; first compound 0.02 µM)?
**A.** 0.397

**Q.** And the relative viability (NCI-H727; first compound 0.0002 µM)?
**A.** 0.482

**Q.** What about the relative viability (NCI-H727; first compound 0.000632 µM) of the same compound?
**A.** 0.537

**Q.** And the relative viability (NCI-H727; first compound 0.002 µM)?
**A.** 0.503

**Q.** And the relative viability (NCI-H727; first compound 0.006325 µM)?
**A.** 0.452

**Q.** And the relative viability (NCI-H727; first compound 0.02 µM)?
**A.** 0.381

**Q.** And the relative viability (PC-14; first compound 0.0002 µM)?
**A.** 0.322

**Q.** And the relative viability (PC-14; first compound 0.000632 µM)?
**A.** 0.337

**Q.** And the relative viability (PC-14; first compound 0.002 µM)?
**A.** 0.132

**Q.** What about the relative viability (PC-14; first compound 0.006325 µM) of the same compound?
**A.** 0.0705

**Q.** What about the relative viability (PC-14; first compound 0.02 µM) of the same compound?
**A.** 0.0363

**Q.** What about the relative viability (RERF-LC-KJ; first compound 0.0002 µM) of the same compound?
**A.** 0.5

**Q.** And the relative viability (RERF-LC-KJ; first compound 0.000632 µM)?
**A.** 1.01

**Q.** What about the relative viability (RERF-LC-KJ; first compound 0.002 µM) of the same compound?
**A.** 0.363

**Q.** What about the relative viability (RERF-LC-KJ; first compound 0.006325 µM) of the same compound?
**A.** 0.196

**Q.** And the relative viability (RERF-LC-KJ; first compound 0.02 µM)?
**A.** 0.128

**Q.** What about the relative viability (SW 900; first compound 0.0002 µM) of the same compound?
**A.** 0.452

**Q.** And the relative viability (SW 900; first compound 0.000632 µM)?
**A.** 0.234

**Q.** What about the relative viability (SW 900; first compound 0.002 µM) of the same compound?
**A.** 0.287

**Q.** And the relative viability (SW 900; first compound 0.006325 µM)?
**A.** 0.235

**Q.** And the relative viability (SW 900; first compound 0.02 µM)?
**A.** 0.161
